{"source": "patent US6770262B2", "about": "“Nasal administration of agents for the treatment of gastroparesis” (priority 2000, dated 2004)", "origin": "cited, not measured here", "conditions": "for onset of action: injection form", "note": "Read-outs that look alike come from different tables or passages of the source.", "data": [{"compound": "CCN(CC)CCNC(=O)c1cc(Cl)c(N)cc1OC", "note": "[Metoclopramide]", "values": [{"measurement": "time of peak plasma concentrations", "setting": "after a single oral dose", "value": "1 to 2", "unit": "h"}, {"measurement": "onset of action", "setting": "intramuscular administration", "value": "10 to 15", "unit": "min"}, {"measurement": "onset of action", "setting": "intravenous administration", "value": "1 to 3", "unit": "min"}]}]}
